Earlier results in patent US20040128703A1, “Methods and compositions for the generation of humanized mice” (priority 2002, published 2004).
Where two headings read alike, the source gives them in different places.

What was measured:
[1] = system: CYP3A expression in rat hepatocytes
human PXR [2] = target: T1, human PXR (Homo sapiens, UniProt O75469); settings: human PXR transfected into rat hepatocytes
T1 sequence (O75469 1-434): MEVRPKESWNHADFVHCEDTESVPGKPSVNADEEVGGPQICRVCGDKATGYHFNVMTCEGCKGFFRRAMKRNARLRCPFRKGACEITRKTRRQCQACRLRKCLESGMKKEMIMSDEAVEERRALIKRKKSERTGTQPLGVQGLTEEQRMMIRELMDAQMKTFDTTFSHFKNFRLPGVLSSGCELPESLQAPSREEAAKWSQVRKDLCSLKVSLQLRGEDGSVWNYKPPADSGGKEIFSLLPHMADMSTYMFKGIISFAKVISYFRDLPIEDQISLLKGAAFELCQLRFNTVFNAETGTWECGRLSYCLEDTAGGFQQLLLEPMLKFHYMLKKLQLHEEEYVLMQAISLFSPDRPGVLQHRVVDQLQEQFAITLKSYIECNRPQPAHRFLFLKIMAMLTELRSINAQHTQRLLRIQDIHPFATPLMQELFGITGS

human PXR [3] = target: T1, human PXR; settings: transgenic mice, native PXR partially deleted, human PXR gene targeted to the liver

Row | SMILES | P-glycoprotein induction (P-glycoprotein) | effect on CYP3A expression in rat hepatocytes [1] | CYP3A expression in rat hepatocytes transfected with human PXR (human PXR [2]) | CYP3A4 expression in human liver (CYP3A4 expression) | other results
1 | O=C(O)c1cn(C2CC2)c2cc(N3CCNCC3)c(F)cc2c1=O [Ciprofloxacin] | – | – | – | – | susceptibility of bacteria (gram-negative bacilli; 1994, US): 86%; susceptibility of bacteria (gram-negative bacilli; 2000, US): 76%
2 | CCOP(=O)(OCC)C(=Cc1cc(C(C)(C)C)c(O)c(C(C)(C)C)c1)P(=O)(OCC)OCC [SR12813] | induced | – | – | – | –
3 | CC(=O)O[C@H]1C(=O)[C@@]2(C)[C@H]([C@H](OC(=O)c3ccccc3)[C@]3(O)C[C@H](OC(=O)[C@H](O)[C@@H](NC(=O)c4ccccc4)c4ccccc4)C(C)=C1C3(C)C)[C@]1(OC(C)=O)CO[C@@H]1C[C@@H]2O [Taxol] | induced | – | – | – | –
4 | Clc1ccccc1C(c1ccccc1)(c1ccccc1)n1ccnc1 [clotrimazole] | – | no effect | able to stimulate CYP3A expression | stimulate CYP3A4 expression | CYP3A expression in the mouse (human PXR [3]): induced CYP3A expression
5 | CCC1(c2ccccc2)C(=O)NC(=O)NC1=O [phenobarbital] | – | no effect | able to stimulate CYP3A expression | stimulate CYP3A4 expression | –
